In US12215085B2 (priority 2019, dated 2025):

Test system: rats with beta-amyloid induced senile dementia
Experiment: Water maze test, beta-amyloid induced senile dementia rats
Assay type: in vivo, rat
Settings: succinate; for orientation angle for reaching the platform / speed for reaching the platform / swimming path length for reaching the platform / time for reaching the platform: x ± s
[1] = Day 1, 0.7 mg/kg intragastric, 0.7 mg/kg
[2] = Day 1, 1.4 mg/kg intragastric, 1.4 mg/kg
[3] = Day 1, 2.8 mg/kg intragastric, 2.8 mg/kg
[4] = Day 2, 0.7 mg/kg intragastric, 0.7 mg/kg
[5] = Day 2, 1.4 mg/kg intragastric, 1.4 mg/kg
[6] = Day 2, 2.8 mg/kg intragastric, 2.8 mg/kg
[7] = Day 3, 0.7 mg/kg intragastric, 0.7 mg/kg
[8] = Day 3, 1.4 mg/kg intragastric, 1.4 mg/kg
[9] = Day 3, 2.8 mg/kg intragastric, 2.8 mg/kg
[10] = Day 4, 0.7 mg/kg intragastric, 0.7 mg/kg
[11] = Day 4, 1.4 mg/kg intragastric, 1.4 mg/kg
[12] = Day 4, 2.8 mg/kg intragastric, 2.8 mg/kg
[13] = Day 5, 0.7 mg/kg intragastric, 0.7 mg/kg
[14] = Day 5, 1.4 mg/kg intragastric, 1.4 mg/kg
[15] = Day 5, 2.8 mg/kg intragastric, 2.8 mg/kg
[16] = Day 6, 0.7 mg/kg intragastric, 0.7 mg/kg
[17] = Day 6, 1.4 mg/kg intragastric, 1.4 mg/kg
[18] = Day 6, 2.8 mg/kg intragastric, 2.8 mg/kg

Nc1c2c(nc3c1CCCC3)CCCC2.O=C(O)CCC(=O)O [Crystal Form K, 9-amino-1,2,3,4,5,6,7,8-octahydroacridine succinate]
adopted strategy for reaching the platform (the peripheral type and the random type %) [1]: 95.24% | orientation angle for reaching the platform [1]: 72.32 ± 21.32 ° | speed for reaching the platform [1]: 18.56 ± 4.91 cm/s | swimming path length for reaching the platform [1]: 1196.20 ± 260.35 cm | time for reaching the platform [1]: 70.00 ± 14.73 s | adopted strategy for reaching the platform (the peripheral type and the random type %) [2]: 94.82% | orientation angle for reaching the platform [2]: 71.28 ± 13.47 ° | speed for reaching the platform [2]: 18.24 ± 6.88 cm/s | swimming path length for reaching the platform [2]: 1151.50 ± 313.31 cm | time for reaching the platform [2]: 70.50 ± 14.60 s | adopted strategy for reaching the platform (the peripheral type and the random type %) [3]: 93.17% | orientation angle for reaching the platform [3]: 68.37 ± 20.14 ° | speed for reaching the platform [3]: 19.42 ± 5.93 cm/s | swimming path length for reaching the platform [3]: 1188.50 ± 273.99 cm | time for reaching the platform [3]: 66.90 ± 11.45 s | adopted strategy for reaching the platform (the peripheral type and the random type %) [4]: 79.34% | orientation angle for reaching the platform [4]: 62.15 ± 19.37 ° | speed for reaching the platform [4]: 19.44 ± 9.85 cm/s | swimming path length for reaching the platform [4]: 796.10 ± 179.65 cm | time for reaching the platform [4]: 48.50 ± 15.28 s | adopted strategy for reaching the platform (the peripheral type and the random type %) [5]: 78.13% | orientation angle for reaching the platform [5]: 63.27 ± 10.38 ° | speed for reaching the platform [5]: 20.42 ± 7.24 cm/s | swimming path length for reaching the platform [5]: 772.80 ± 229.71 cm | time for reaching the platform [5]: 51.60 ± 17.26 s | adopted strategy for reaching the platform (the peripheral type and the random type %) [6]: 80.67% | orientation angle for reaching the platform [6]: 66.21 ± 18.35 ° | speed for reaching the platform [6]: 20.89 ± 6.68 cm/s | swimming path length for reaching the platform [6]: 770.70 ± 248.67 cm | time for reaching the platform [6]: 50.40 ± 17.10 s | adopted strategy for reaching the platform (the peripheral type and the random type %) [7]: 80.31% | orientation angle for reaching the platform [7]: 58.23 ± 27.90 ° | speed for reaching the platform [7]: 19.76 ± 10.49 cm/s | swimming path length for reaching the platform [7]: 760.80 ± 277.08 cm | time for reaching the platform [7]: 41.80 ± 11.68 s | adopted strategy for reaching the platform (the peripheral type and the random type %) [8]: 77.37% | orientation angle for reaching the platform [8]: 54.77 ± 18.42 ° | speed for reaching the platform [8]: 20.07 ± 7.36 cm/s | swimming path length for reaching the platform [8]: 737.60 ± 223.46 cm | time for reaching the platform [8]: 53.40 ± 23.24 s | adopted strategy for reaching the platform (the peripheral type and the random type %) [9]: 75.48% | orientation angle for reaching the platform [9]: 52.93 ± 17.44 ° | speed for reaching the platform [9]: 20.00 ± 8.73 cm/s | swimming path length for reaching the platform [9]: 584.50 ± 181.92 cm | time for reaching the platform [9]: 40.50 ± 20.47 s | adopted strategy for reaching the platform (the peripheral type and the random type %) [10]: 70.66% | orientation angle for reaching the platform [10]: 57.32 ± 31.22 ° | speed for reaching the platform [10]: 22.17 ± 13.09 cm/s | swimming path length for reaching the platform [10]: 685.10 ± 319.17 cm | time for reaching the platform [10]: 38.10 ± 22.41 s | adopted strategy for reaching the platform (the peripheral type and the random type %) [11]: 71.34% | orientation angle for reaching the platform [11]: 51.48 ± 11.38 ° | speed for reaching the platform [11]: 20.53 ± 11.21 cm/s | swimming path length for reaching the platform [11]: 653.50 ± 321.17 cm | time for reaching the platform [11]: 36.00 ± 20.42 s | adopted strategy for reaching the platform (the peripheral type and the random type %) [12]: 68.99% | orientation angle for reaching the platform [12]: 50.22 ± 18.92 ° | speed for reaching the platform [12]: 21.48 ± 9.09 cm/s | swimming path length for reaching the platform [12]: 544.70 ± 179.35 cm | time for reaching the platform [12]: 37.00 ± 17.54 s | adopted strategy for reaching the platform (the peripheral type and the random type %) [13]: 71.53% | orientation angle for reaching the platform [13]: 54.22 ± 28.34 ° | speed for reaching the platform [13]: 21.30 ± 9.86 cm/s | swimming path length for reaching the platform [13]: 563.90 ± 154.71 cm | time for reaching the platform [13]: 36.20 ± 27.16 s | adopted strategy for reaching the platform (the peripheral type and the random type %) [14]: 69.33% | orientation angle for reaching the platform [14]: 53.62 ± 17.88 ° | speed for reaching the platform [14]: 22.73 ± 17.69 cm/s | swimming path length for reaching the platform [14]: 562.80 ± 280.10 cm | time for reaching the platform [14]: 33.50 ± 21.95 s | adopted strategy for reaching the platform (the peripheral type and the random type %) [15]: 67.59% | orientation angle for reaching the platform [15]: 51.22 ± 20.11 ° | speed for reaching the platform [15]: 21.90 ± 10.66 cm/s | swimming path length for reaching the platform [15]: 481.50 ± 203.96 cm | time for reaching the platform [15]: 30.10 ± 15.85 s | adopted strategy for reaching the platform (the peripheral type and the random type %) [16]: 68.55% | orientation angle for reaching the platform [16]: 52.11 ± 22.00 ° | speed for reaching the platform [16]: 21.55 ± 6.47 cm/s | swimming path length for reaching the platform [16]: 513.30 ± 194.29 cm | time for reaching the platform [16]: 35.90 ± 24.22 s | adopted strategy for reaching the platform (the peripheral type and the random type %) [17]: 65.72% | orientation angle for reaching the platform [17]: 50.65 ± 18.77 ° | speed for reaching the platform [17]: 20.62 ± 7.36 cm/s | swimming path length for reaching the platform [17]: 523.30 ± 182.50 cm | time for reaching the platform [17]: 38.90 ± 22.26 s | adopted strategy for reaching the platform (the peripheral type and the random type %) [18]: 60.14% | orientation angle for reaching the platform [18]: 48.78 ± 16.83 ° | speed for reaching the platform [18]: 18.52 ± 7.78 cm/s | swimming path length for reaching the platform [18]: 540.50 ± 166.77 cm | time for reaching the platform [18]: 36.10 ± 22.34 s
